How the values were obtained:
[1] = oven at 100° C. for 20 hours
Description: (§1) X-Ray Powder Diffraction Characterisation: X-ray powder diffraction patterns for the samples were acquired on a Bruker D8 diffractometer using CuKα radiation (40 kV, 40 mA), θ-2θ goniometer, V4 receiving slits, a Ge monochromator and a Lynxeye detector. The instrument is performance checked using a certified Corundum standard (NIST 1976). The data were collected over an angular range of 4° to 30° 2Θ using a step size of 0.05° 2Θ and a step time of 4 seconds. Samples were run under ambient conditions as flat plate specimens using powder as received. Approximately, 35 mg of the sample was gently packed into a cavity cut into polished, zero background (510) silicon wafer. The software used for data collection and analysis was Diffrac Plus XRD Commander and Diffrac Plus EVA respectively.

[2] = sealed container, 40° C. and 75% relative humidity, 8 weeks
Description: as §1
A study was carried out to examine the physical stability of the 1:2 cannabigerol L-proline cocrystal with respect to solid form conversion or deliquescence over time under accelerated conditions. 1:2 Cannabigerol L-proline cocrystal (50 mg) was placed in a sealed container at 40° C. and 75% relative humidity and stored under these conditions for 8 weeks. […] The sample was analysed by XRPD to observe any potential form changes.

[3] = Solid-state stability of cannabigerol Form I at 50° C.; assay type: physicochemical; conditions: oven at 50° C. for 10 minutes; for solid form by XRPD after heating and cooling: then allowed to cool
Description: A study was carried out to assess the stability of cannabigerol Form I under conditions of temperatures commonly reached during processing and storage. Cannabigerol Form I (50 mg) was placed in an oven at 50° C. for 10 minutes. […] The sample was allowed to cool after which time a solid was produced.

## CCCCCc1cc(O)c(C/C=C(\C)CCC=C(C)C)c(O)c1.O=C(O)[C@@H]1CCCN1.O=C(O)[C@@H]1CCCN1 [1:2 cannabigerol L-proline cocrystal]
[1]
  solid form conversion by XRPD after high temperature storage: retained its original crystalline form
[2]
  physical state / deliquescence after storage: completely solid with no signs of deliquescence
[2]; XRPD
  solid form conversion by XRPD after storage: retained its original crystalline form

## CCCCCc1cc(O)c(C/C=C(\C)CCC=C(C)C)c(O)c1 [Cannabigerol Form I, 2-[(2E)-3,7-dimethylocta-2,6-dienyl]-5-pentyl-benzene-1,3-diol]
[3]
  physical state after heating: melted to produce an oil
  solid form by XRPD after heating and cooling: undergone a polymorph transition to form a new polymorphic form (designated Form III)
[3]; listed as cannabigerol Form I
  solid form by XRPD after heating and cooling: undergone a form conversion to a previously unidentified polymorph (designated Form III)
  physical state after heating: became a liquid
